In PubChem BioAssay (NCI):
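Method: 48-hour compound exposure of cells in 96-well plates, five concentrations, linear interpolation of endpoints. Abbreviation: GI50, concentration required for 50% inhibition of growth. Definition used: TGI = concentration required for complete inhibition of growth.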

Experiments:
Assay in all cases: NCI anticancer screen, dose series, 48 h; in the data active means GI50 below about 0.43 µM; inactive means the rest
[1] = test system: SW-620 colon
[2] = test system: KM12 colon
[3] = test system: RXF 393 renal
[4] = test system: SF-295 CNS
[5] = test system: EKVX NSCLC
[6] = test system: CCRF-CEM leukemia
[7] = test system: SNB-19 CNS
[8] = test system: IGROV1 ovarian
[9] = test system: HT29 colon
[10] = test system: SF-268 CNS
[11] = test system: DU-145 prostate
[12] = test system: M14 melanoma
[13] = test system: 786-0 renal
[14] = test system: UO-31 renal
[15] = test system: OVCAR-8 ovarian
[16] = test system: NCI-H522 lung
[17] = test system: SN12C renal
[18] = test system: HOP-92 NSCLC
[19] = test system: OVCAR-5 ovarian
[20] = test system: SK-MEL-28 melanoma
[21] = test system: HCT-15 colon
[22] = test system: T-47D breast
[23] = test system: NCI-H23 lung
[24] = test system: MDA-MB-435
[25] = test system: HCT-116 colon
[26] = test system: UACC-62 melanoma
[27] = test system: NCI-H460 lung
[28] = test system: LOX IMVI melanoma
[29] = test system: PC-3 prostate
[30] = test system: U251 CNS
[31] = test system: SNB-75 CNS
[32] = test system: ACHN renal
[33] = test system: A549 NSCLC
[34] = test system: HCC-2998 colon
[35] = test system: A498 renal
[36] = test system: SK-OV-3 ovarian
[37] = test system: RPMI-8226 leukemia
[38] = test system: BT-549 breast
[39] = test system: SR leukemia
[40] = test system: OVCAR-3 ovarian
[41] = test system: K-562 leukemia
[42] = test system: NCI-H226 lung
[43] = test system: HL-60(TB) leukemia
[44] = test system: HS 578T breast
[45] = test system: SK-MEL-5 melanoma
[46] = test system: TK-10 renal
[47] = test system: MCF7 breast
[48] = test system: COLO 205 colon
[49] = test system: MDA-MB-231 breast
[50] = test system: HOP-62 NSCLC
[51] = test system: SF-539 CNS
[52] = test system: CAKI-1 renal
[53] = test system: OVCAR-4 ovarian
[54] = test system: NCI/ADR-RES ovarian
[55] = test system: UACC-257 melanoma
[56] = test system: SK-MEL-2 melanoma
[57] = test system: MOLT-4 leukemia

CC1=NN(c2nc(N)nc(COCc3nc(N)nc(N4N=C(C)CC4(C)C)n3)n2)C(C)(C)C1
> 100 µM: TGI [1] | TGI [2] | TGI [3] | TGI [4] | TGI [5] | TGI [6] | TGI [7] | TGI [8] | TGI [9] | TGI [10] | TGI [11] | TGI [12] | TGI [13] | TGI [14] | TGI [15] | TGI [16] | TGI [17] | TGI [18] | TGI [19] | TGI [20] | TGI [21] | TGI [22] | TGI [23] | TGI [24] | TGI [25] | TGI [26] | TGI [27] | TGI [28] | TGI [29] | TGI [30] | TGI [31] | TGI [32] | TGI [33] | TGI [34] | TGI [35] | TGI [36] | TGI [37] | TGI [38] | TGI [39] | TGI [40] | TGI [41] | TGI [42] | TGI [43] | TGI [44] | TGI [45] | TGI [46] | TGI [47] | TGI [48] | TGI [49] | TGI [50] | TGI [51] | TGI [52] | TGI [53] | TGI [54] | TGI [55] | TGI [56] | TGI [57]

COc1ccc2c(c1)CCC1C2CCC2(C)C3=CC(O)CCC3CC12 (configuration not stated)
31.8 µM: TGI [28]
23.9 µM: TGI [45]
37.4 µM: TGI [9]
42.5 µM: TGI [7]
26.2 µM: TGI [55]
41.5 µM: TGI [38]
27.4 µM: TGI [30] | TGI [34]
34.5 µM: TGI [54]
36.3 µM: TGI [6]
50.5 µM: TGI [47]
51.5 µM: TGI [20]
29.1 µM: TGI [19]
29.6 µM: TGI [25]
36.7 µM: TGI [15]
43.2 µM: TGI [46]
45.2 µM: TGI [18]
45.5 µM: TGI [52]
31.6 µM: TGI [33]
35.4 µM: TGI [24] | TGI [35]
43.9 µM: TGI [37]
49.1 µM: TGI [44]
46.1 µM: TGI [4]
53.6 µM: TGI [40]
> 100 µM: TGI [31]
33.3 µM: TGI [13]
64.5 µM: TGI [22]
31.5 µM: TGI [16]
88.7 µM: TGI [48]
75.1 µM: TGI [53]
30.1 µM: TGI [1] | TGI [23]
40.9 µM: TGI [14]
30.9 µM: TGI [17]
inactive: GI50 [1] 14.4 µM | GI50 [2] 19.8 µM | GI50 [4] 20.4 µM | GI50 [5] 16.9 µM | GI50 [6] 15.6 µM | GI50 [7] 21.5 µM | GI50 [8] 16.7 µM | GI50 [9] 11 µM | GI50 [10] 20.3 µM | GI50 [11] 15.7 µM | GI50 [12] 15.7 µM | GI50 [13] 17.4 µM | GI50 [14] 19.8 µM | GI50 [15] 18 µM | GI50 [16] 14.3 µM | GI50 [17] 16.4 µM | GI50 [18] 22.6 µM | GI50 [19] 15.2 µM | GI50 [20] 21.8 µM | GI50 [21] 7.06 µM | GI50 [22] 23 µM | GI50 [23] 15.8 µM | GI50 [24] 15.3 µM | GI50 [25] 15.7 µM | GI50 [26] 12.5 µM | GI50 [27] 19.4 µM | GI50 [28] 15.4 µM | GI50 [29] 15.2 µM | GI50 [30] 14 µM | GI50 [31] 43.5 µM | GI50 [32] 20.1 µM | GI50 [33] 14.7 µM | GI50 [34] 14.3 µM | GI50 [35] 16.7 µM | GI50 [37] 16.7 µM | GI50 [38] 18.8 µM | GI50 [39] 14.3 µM | GI50 [40] 25.1 µM | GI50 [41] 13.1 µM | GI50 [42] 18 µM | GI50 [43] 15.6 µM | GI50 [44] 23.4 µM | GI50 [45] 11.7 µM | GI50 [46] 21.2 µM | GI50 [47] 24.8 µM | GI50 [48] 32.7 µM | GI50 [49] 17.6 µM | GI50 [50] 19.6 µM | GI50 [51] 18.3 µM | GI50 [52] 21.9 µM | GI50 [53] 28 µM | GI50 [54] 16 µM | GI50 [55] 12.7 µM | GI50 [56] 18.9 µM | GI50 [57] 18.3 µM
37.5 µM: TGI [39]
36.2 µM: TGI [5]
31.1 µM: TGI [29]
56.6 µM: TGI [56]
37.2 µM: TGI [8]
40.1 µM: TGI [2]
25 µM: TGI [26]
40.6 µM: TGI [10]
30.2 µM: TGI [11] | TGI [12]
21.2 µM: TGI [21]
34.8 µM: TGI [49]
35.5 µM: TGI [41] | TGI [43]
40.7 µM: TGI [27] | TGI [42]
43.7 µM: TGI [57]
34.4 µM: TGI [50]
34.7 µM: TGI [32] | TGI [51]
